Source: patent publication US20050048105A1, “Protease inhibitor compositions for prevention and treatment of skin conditions” (priority 2003, published 2005)
Read-outs that look alike come from different tables or passages of the source.

Experiments:
trypsin = biological target: T1, trypsin (Bos taurus, UniProt P00760); assay: Back digest of albumin/gelatin dye substrate by trypsin (FIGS. 2 and 4); assay type: biochemical
T1 construct: gene PRSS1
T1 sequence (P00760 24-246): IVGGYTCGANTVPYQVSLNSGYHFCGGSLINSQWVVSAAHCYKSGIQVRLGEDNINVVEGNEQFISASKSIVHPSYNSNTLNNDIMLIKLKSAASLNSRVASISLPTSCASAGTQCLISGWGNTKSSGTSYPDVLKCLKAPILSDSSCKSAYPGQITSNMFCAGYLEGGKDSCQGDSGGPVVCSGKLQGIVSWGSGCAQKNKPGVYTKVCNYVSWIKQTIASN
Description: (§1) The inventor selected glycine soja and DPHP by testing numerous potential inhibitors in vitro to assess their activity against protease enzymes. A protease enzyme present in feces or urine, such as trypsin, chymotrypsin, or elastase, was placed in contact with a substrate (crosslinked albumin, sulfaniloazo-albumin and gelatin). Separately, the protease (trypsin, chymotrypsin or elastase) was incubated with a protease inhibitor and then this combination was placed in contact with the substrate. The substrate-protease or substrate-protease-protease inhibitor combination was then left to incubate.
(§2) At a defined time, the incubation was stopped by the addition of NaOH. Color was developed and read at OD 450. The intensity of the color developed was directly proportional to the amount of substrate digested by the protease.
A back digest was performed with a spectrally active protease substrate, trypsin, and either DPHP or glycine soja. Trypsin was incubated with either DPHP or glycine soja, and for the control, neither DPHP nor glycine soja was used. The trypsin or trypsin+either DPHP or glycine soja was then placed in contact with a substrate, the results of which are shown in FIGS. 3 and 4.
(§3) The substrate used was a crosslinked albumin, sulfaniloazo-albumin and gelatin at a slightly acidic pH. […] This color development can be measured spectrophotometrically at OD 450 and the OD value is proportional to enzymatic activity. […] The OD 450 reading is directly proportional to the enzyme activity (i.e. the higher the value, the higher the enzyme activity).
(§4) A back digest was conducted when particulate suspensions were used as either enzyme or enzyme inhibitor or when lotions were being tested, because the particulate interferes with the OD readings. […] Color development was read at OD 450. […]
After an initial digest, the supernatant was decanted, and an excess of trypsin was added for further digestion of the substrate. After this final digest, supernatant optical density (OD) was read at 450 nm. […]

elastase [1] = assay: Back digest of albumin/gelatin dye substrate by elastase (FIG. 4); assay type: biochemical
Description: as §1
At a defined time, the incubation was stopped by the addition of NaOH. Color was developed and read at OD 450. […]
as §3, §4

chymotrypsin = chymotrypsin (Bos taurus, UniProt P00766); assay: In vitro protease substrate digest with chymotrypsin; assay type: biochemical
Description: as §1, §2

elastase [2] = conditions: studies by the manufacturer (Seppic); cited from earlier work
[3] = shown by the manufacturer; cited from earlier work
protease = assay: Protease inhibition activity of inhibitor solutions and lotions, fresh and after storage; assay type: biochemical; conditions: for initial protease inhibition activity: freshly prepared preparation; for decrease of inhibitory activity after storage of solution: one month at room temperature, vs fresh solution
Description: as §1, §2
Using the above methods, two protease inhibitors mentioned by the prior art were tested. […] However, they were left for one month and then tested for activity. After one month at room temperature, the activity of the stabilized AEBSF solution was decreased by 42%.

[4] = DPHP material itself, back digest, FIG. 4
[5] = listed as dipalmitoyl hydroxyproline

SMILES | inhibition of trypsin (in words) (trypsin) | change in trypsin activity (trypsin; [4]) [%] | inhibition of trypsin (in words) (trypsin; [5]) | inhibition of elastase (in words) (elastase [1]) | change in elastase activity (elastase [1]; [4]) [%] | inhibition of chymotrypsin (in words) (chymotrypsin) | inhibition of chymotrypsin (in words) (chymotrypsin; [5]) | inhibition of elastase (manufacturer) (elastase [2]) | inhibition of free radicals (manufacturer) [3] | initial protease inhibition activity (protease) | decrease of inhibitory activity after storage of solution (protease)
CCCCCCCCCCCCCCCC(=O)O[C@@H]1C[C@@H](C(=O)O)N(C(=O)CCCCCCCCCCCCCCC)C1 [DPHP, dipalmitoyl hydroxyproline] | does inhibit | −33 | potent inhibitors | does inhibit | −22 | does inhibit | potent inhibitors | potent inhibitor of elastase | potent inhibitor of free radicals |  | 
N=C(N)c1ccc(OCCCCCCOc2ccc(C(=N)N)cc2)cc1.O=S(=O)(O)CCO.O=S(=O)(O)CCO [Elestab, hexamidine diisethionate] |  |  |  |  |  |  |  |  |  | very high protease inhibition activity | about 37%
Cl.NCCc1ccc(S(=O)(=O)F)cc1 [AEBSF, 4-(2-aminoethyl)-benzenesulfonylfluoride hydrochloride] |  |  |  |  |  |  |  |  |  | very high protease inhibition activity | 42%
